Counter-ions that a name gives are not always drawn.
The compounds below were run on RSV Long strain (assay: Viral cytopathic effect (CPE) assay, anti-RSV activity). Conditions: RSV Long strain (ATCC); cell viability after 6 days, Cell Counting kit-8.
Type: cell-based, Respiratory Syncytial Virus
Method in brief: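 Cells (6×10^3/well, DMEM with 10% FBS) were infected next day with RSV Long strain, at a dose giving approximately 80–90% CPE, alongside serial half-log compound dilutions. Viability was read after 6 days by CCK-8 absorbance at 450 nm (reference 630 nm), and EC50 was derived from it.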
`Cc1ccc2nc(N3CC[S+]([O-])c4ccccc4C3)cc(NCC3(N)COC3)c2c1` (single isomer, unassigned; (-)) [Example 18-3, (−)-N-[(3-Aminooxetan-3-yl)methyl]-6-methyl-2-[1-oxido-2,3-dihydro-1,4-benzothiazepin-4(5H)-yl]quinolin-4-amine] showed an EC50 of 0.014 µM.

Same assay, conditions: human respiratory syncytial virus, 144 h, RSV Long strain (ATCC); cell viability after 6 days, Cell Counting kit-8
For `NCCNc1cc(N2CCCc3ccccc3C2)nc2ccc(Br)cc12` [Example 118-10, N-[6-Bromo-2-(1,3,4,5-tetrahydro-2H-2-benzazepin-2-yl)quinolin-4-yl]ethane-1,2-diamine], the EC50 was 0.289 µM.
Compound `NC1(CNc2cc(N3CC[S+]([O-])c4ccccc4C3)nc3ccc(Cl)cc23)COC1` (stereo not shown) [Example 18-4, N-[(3-Aminooxetan-3-yl)methyl]-6-chloro-2-(1-oxido-2,3-dihydro-1,4-benzothiazepin-4 (5H)-yl)quinolin-4-amine] has an EC50 of 0.061 µM.
`Cc1ccc2nc(N3CCS(=O)(=O)c4ccccc4C3)cc(NCC(C)N)c2c1` (stereo not shown) [Example 5-5, N˜1˜-[2-(1,1-Dioxido-2,3-dihydro-1,4-benzothiazepin-4(5H)-yl)-6-methylquinolin-4-yl]propane-1,2-diamine] gave an EC50 of 0.014 µM.
For `Cc1ccc2nc(N3CCS(=O)(=O)c4ccccc4C3)cc(NC3=NCCN3)c2c1` [Example 7, N-(4,5-Dihydro-1H-imidazol-2-yl)-2-(1,1-dioxido-2,3-dihydro-1,4-benzothiazepin-4(5H)-yl)-6-methylquinolin-4-amine], the EC50 was 1.42 µM.
In the case of `CO[C@@H]1CN(c2cc(N3CCS(=O)(=O)c4ccccc4C3)nc3ccc(C)cc23)C[C@H]1N` (relative stereo) [Example 8-3, trans-1-[2-(1,1-Dioxido-2,3-dihydro-1,4-benzothiazepin-4(5H)-yl)-6-methylquinolin-4-yl]-4-methoxypyrrolidin-3-amine], the EC50 is reported as 0.9 µM.
For `Cc1ccc2nc(N3CCS(=O)(=O)c4ccccc4C3)cc(C(=O)C3CCNCC3)c2c1` [Example 100, [2-(1,1-Dioxido-2,3-dihydro-1,4-benzothiazepin-4(5H)-yl)-6-methylquinolin-4-yl](piperidin-4-yl)methanone], the EC50 was 9.19 µM.
`Cc1ccc2nc(N3CCS(=O)(=O)c4ccccc4C3)cc(NS(=O)(=O)C(F)(F)F)c2c1` [Example 3-57, N-[2-(1,1-Dioxido-2,3-dihydro-1,4-benzothiazepin-4(5H)-yl)-6-methylquinolin-4-yl]-1,1,1-trifluoromethanesulfonamide hydrochloride] was tested, and the EC50 was 7.53 µM.
Compound `NCCCNc1cc(N2CCS(=O)(=O)c3ccccc3C2)nc2ccc(OCCO)cc12` [Example 30-1, 2-({4-[(3-Aminopropyl)amino]-2-(1,1-dioxido-2,3-dihydro-1,4-benzothiazepin-4(5 H)-yl)quinolin-6-yl}oxy)ethanol] has an EC50 of 0.317 µM.
For `CCOc1ccc2c(c1)CN(c1cc(NCCN)c3ccccc3n1)CCC2` [Example 121, N-[2-(8-Ethoxy-1,3,4,5-tetrahydro-2H-2-benzazepin-2-yl)quinolin-4-yl]ethane-1,2-diamine], the EC50 was 1.1 µM.
`CS(=O)(=O)c1ccc2nc(N3CCCc4ccccc4C3)cc(NCCN)c2c1` [Example 118-24, N-[6-(Methylsulfonyl)-2-(1,3,4,5-tetrahydro-2H-2-benzazepin-2-yl)quinolin-4-yl]ethane-1,2-diamine] gave an EC50 of 6.45 µM.
`Cc1ccc2nc(N3CCS(=O)(=O)c4cc(Cl)ccc4C3)cc(NCC3(N)COC3)c2c1` [Example 1-6, N-[(3-Aminooxetan-3-yl)methyl]-2-(8-chloro-1,1-dioxido-2,3-dihydro-1,4-benzothiazepin-4(5H)-yl)-6-methylquinolin-4-amine] gave an EC50 of 0.022 µM.
Work on `NCCNc1cc(N2CCCc3c(Cl)cccc3C2)nc2ccccc12` [Example 118-12, N-[2-(6-Chloro-1,3,4,5-tetrahydro-2H-2-benzazepin-2-yl)quinolin-4-yl]ethane-1,2-diamine] yielded an EC50 of 0.448 µM.
For `Cc1ccc2nc(N3CCS(=O)(=O)c4ccccc4C3)nc(NCC3(CN)COC3)c2c1` [Example 56-1, N-{[3-(Aminomethyl)oxetan-3-yl]methyl}-2-(1,1-dioxido-2,3-dihydro-1,4-benzothiazepin-4(5H)-yl)-6-methylquinazolin-4-amine], the EC50 was 0.002 µM.
With `O=S1(=O)CCN(c2cc(NCCO)c3cnccc3n2)Cc2ccccc21` [Example 12-2, 2-{[2-(1,1-Dioxido-2,3-dihydro-1,4-benzothiazepin-4(5H)-yl)-1,6-naphthyridin-4-yl]amino}ethanol] the EC50 was 0.315 µM.
In the case of `Cc1ccc2nc(N3CCC(F)(F)c4ccccc4C3)cc(NCCOCCN)c2c1` [Example 110-2, N-[2-(2-Aminoethoxy)ethyl]-2-(5,5-difluoro-1,3,4,5-tetrahydro-2H-2-benzazepin-2-yl)-6-methylquinolin-4-amine], the EC50 is reported as 2.61 µM.
`Cc1cccc2c(NCCCCCCCCCCN)cc(N3CCS(=O)(=O)c4ccccc4C3)nc12` [Example 12-4, N-[2-(1,1-Dioxido-2,3-dihydro-1,4-benzothiazepin-4(5H)-yl)-8-methylquinolin-4-yl]decane-1,10-diamine] showed an EC50 of 0.764 µM.
In the case of `NCC1(CNc2nc(N3CC[S+]([O-])c4ccccc4C3)nc3ccc(CO)cc23)COC1` (stereo not shown) [Example 109-1, [4-({[3-(Aminomethyl)oxetan-3-yl]methyl}amino)-2-(1-oxido-2,3-dihydro-1,4-benzothiazepin-4(5H)-yl)quinazolin-6-yl]methanol], the EC50 is reported as 0.00088 µM.
`Cc1ccc2c(c1)S(=O)(=O)CCN(c1cc(NCC3(CN)COC3)c3cc(C)ccc3n1)C2` [Example 3-8, N-{[3-(Aminomethyl)oxetan-3-yl]methyl}-6-methyl-2-(8-methyl-1,1-dioxido-2,3-dihydro-1,4-benzothiazepin-4(5H)-yl)quinolin-4-amine] was tested, and the EC50 was 0.002 µM.
In the case of `CCNC(=O)Nc1cc(N2CCS(=O)(=O)c3ccccc3C2)nc2ccc(C)cc12` [Example 50-2, 1-[2-(1,1-Dioxido-2,3-dihydro-1,4-benzothiazepin-4(5H)-yl)-6-methylquinolin-4-yl]-3-ethylurea], the EC50 is reported as 2.42 µM.
`Cc1ccc2nc(N3CCS(=O)(=O)c4cc(F)ccc4C3)cc(NCC3(N)COC3)c2c1` [Example 1-2, N-[(3-Aminooxetan-3-yl)methyl]-2-(8-fluoro-1,1-dioxido-2,3-dihydro-1,4-benzothiazepin-4(5H)-yl)-6-methylquinolin-4-amine] was tested, and the EC50 was 0.007 µM.
With `COc1ccc2nc(N3CCS(=O)(=O)c4ccccc4C3)cc(NCCCN)c2c1` [Example 17-4, N-[2-(1,1-Dioxido-2,3-dihydro-1,4-benzothiazepin-4(5H)-yl)-6-methoxyquinolin-4-yl]propane-1,3-diamine] the EC50 was 0.071 µM.
`Cc1ccc2nc(N3CCS(=O)(=O)c4ccccc4C3)cc(N3C[C@H](O)[C@@H](O)C3)c2c1` [Example 3-34, (3S,4S)-1-[2-(1,1-Dioxido-2,3-dihydro-1,4-benzothiazepin-4(5H)-yl)-6-methylquinolin-4-yl]pyrrolidine-3,4-diol] showed an EC50 of 0.085 µM.
With `Cc1ccc2nc(N3CCS(=O)(=O)c4ccccc4C3)cc(NCC(O)CCO)c2c1` (stereo not shown) [Example 68, 4-{[2-(1,1-Dioxido-2,3-dihydro-1,4-benzothiazepin-4(5H)-yl)-6-methylquinolin-4-yl]amino}butane-1,3-diol] the EC50 was 2.01 µM.
`Cc1ccc2nc(N3CCNc4ccccc4C3)cc(NCCN)c2c1` [Example 133-2, N-[6-Methyl-2-(1,2,3,5-tetrahydro-4H-1,4-benzodiazepin-4-yl)quinolin-4-yl]ethane-1,2-diamine] showed an EC50 of 0.186 µM.
